{"source": "paper PMC6234229", "about": "“The role of loops B and C in determining the potentiation of GABAA receptors by midazolam” (Pharmacology Research & Perspectives, 2018)", "key": {"[1]": {"conditions": "cited from earlier work"}, "[2]": {"molecular_target": "T1, α3(H126R)β2γ2 GABAA receptor (Homo sapiens, UniProt P18507+P34903+P47870, H154R)", "T1 construct": "expressed in transfected cells; host or cells: HEK293T", "assay": "GABA concentration-response assay, whole-cell patch clamp, HEK293T", "assay_type": "cell-based", "conditions": "GABA Hill fit", "text": "(§1) Human (Homo sapiens) GABAA subunits (α1‐6, β2, γ2s) were subcloned into pcDNA3.1+ vectors with a cytomegalovirus (CMV) promoter. The hβ2 and hα3 sequences were humanized rat (Rattus norvegicus) cDNA with amino acid substitutions made to match the human protein sequence. The α1‐3, α5, β2, and γ2s subunits were a generous gift from Neil L. Harrison (Columbia University Medical Center, NY). The α4 subunit was obtained from GenScript (Piscataway, NJ), and the α6 subunit was a generous gift from Robert L. McDonald (Vanderbilt University, TN). All point mutations (listed in Figure 1C) were introduced using the QuikChange Lightening site‐directed mutagenesis kit (Agilent Technologies, Santa Clara, CA) according to the manufacturer's instructions and were confirmed by sequencing (Eurofins MWG Operon, Louisville, KY).\n(§2) Human embryonic kidney cells containing the SV40 T‐antigen (HEK293T) were acquired from American Type Culture Collection (ATCC®, Manassas, VA), catalogue number, CRL3216. HEK293T cells were maintained at 37°C and 5% CO2 in Eagle Minimum Essential Medium (MEM) supplemented with 5% fetal bovine serum (Atlanta Biologicals Inc., Flowery Branch, GA), 40 μM L‐glutamine, 100 U/mL penicillin and 0.1 mM streptomycin. Cells were passaged regularly when they reached 70% confluency using trypsin. Cells were not passaged more than 22 times. New cells were revived from frozen stocks at passage 2‐4. Cells used for in vitro electrophysiology experiments were grown on poly‐D‐lysine‐coated glass coverslips (No.2, VWR, Radnor, PA) and transfected with X‐tremeGENE (Roche Diagnostics, Indianapolis, IN) with the desired receptor subunit cDNAs at a 1:1:1 ratio to express αxβ2γ2s receptors (2 μg total cDNA) and with 0.5 μg green fluorescent protein (GFP) as an expression marker. The γ2s incorporation into receptors was tested with zinc inhibition assays regularly.24 Patch clamp experiments were performed on cells at 24‐72 hours post‐transfection. All experiments were performed at 22°C. Experiments consisted of at least five cells recorded per day from at least two transfections across 3‐4 days to control for cell health and transfection efficiency. At least three cells expressing wild‐type receptors were recorded on days that mutant receptors were tested to provide a time‐matched expression control. All reagents were purchased from Sigma‐Aldrich (St. Louis, MO) unless otherwise stated.\n(§3) Extracellular solution contained 161 mM NaCl, 3 mM KCl, 1 mM MgCl2, 1.5 mM CaCl2, 10 mM HEPES, and 6 mM D‐glucose, adjusted to pH 7.4 with NaOH (320‐330 mOsm). […] The perfusion system was controlled by protocols written in pClamp 9 (Molecular Devices, LLC., Sunnyvale, CA). Whole‐cell currents were recorded at ‐60 mV, filtered at 100 Hz and sampled at 200 Hz with a MultiClamp 700B amplifier (Molecular Devices, LLC) and DigiData 1322A (Molecular Devices, LLC) digitizer. […] Cells were recorded with the midazolam protocol no more than two times to avoid desensitization and incomplete washout or irreversible modulation.\n(§4) Recordings were analyzed using MATLAB (Math Works, Inc., Natick, MA). […] The maximum peak current, EC50 and Hill coefficient were estimated for assays from each cell. When Hill parameters are estimated from whole‐cell recordings, the changes in the parameters across receptor conditions can be ascribed to the following changes in receptor physiology. Changes in maximum current can be due to changes in the single‐channel conductance or the rate of desensitization. Changes in cell surface receptor expression can cause minor changes in maximum current, but are unlikely to occur in the time course of our experimental protocol. […] More often minor changes in the Hill coefficient are attributed to the altered homogeneity in the receptor population expressed by the HEK293T cell. For example, a shallower Hill coefficient could be caused by a shift in the population of receptors from mostly αβγ receptors to a combination of both αβ and αβγ receptors."}, "[3]": {"molecular_target": "T2, α1(S206I)β2γ2 GABAA receptor (Homo sapiens, UniProt P14867+P18507+P47870, S233I)", "T2 construct": "expressed in transfected cells; host or cells: HEK293T", "T2 sequence (P14867 28-456 S233I)": "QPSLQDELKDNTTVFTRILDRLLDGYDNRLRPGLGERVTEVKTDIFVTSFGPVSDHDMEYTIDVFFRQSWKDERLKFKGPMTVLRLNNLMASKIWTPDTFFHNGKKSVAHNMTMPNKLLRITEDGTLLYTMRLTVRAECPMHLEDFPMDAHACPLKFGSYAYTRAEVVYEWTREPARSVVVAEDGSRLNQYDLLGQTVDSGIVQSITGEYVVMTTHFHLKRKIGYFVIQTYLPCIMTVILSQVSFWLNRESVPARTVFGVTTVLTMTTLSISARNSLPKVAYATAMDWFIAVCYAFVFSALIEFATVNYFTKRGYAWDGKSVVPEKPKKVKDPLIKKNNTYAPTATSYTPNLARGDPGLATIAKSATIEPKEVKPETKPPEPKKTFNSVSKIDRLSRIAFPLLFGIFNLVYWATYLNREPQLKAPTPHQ", "T2 sequence (P47870 25-512 limits assumed, stated change not applied)": "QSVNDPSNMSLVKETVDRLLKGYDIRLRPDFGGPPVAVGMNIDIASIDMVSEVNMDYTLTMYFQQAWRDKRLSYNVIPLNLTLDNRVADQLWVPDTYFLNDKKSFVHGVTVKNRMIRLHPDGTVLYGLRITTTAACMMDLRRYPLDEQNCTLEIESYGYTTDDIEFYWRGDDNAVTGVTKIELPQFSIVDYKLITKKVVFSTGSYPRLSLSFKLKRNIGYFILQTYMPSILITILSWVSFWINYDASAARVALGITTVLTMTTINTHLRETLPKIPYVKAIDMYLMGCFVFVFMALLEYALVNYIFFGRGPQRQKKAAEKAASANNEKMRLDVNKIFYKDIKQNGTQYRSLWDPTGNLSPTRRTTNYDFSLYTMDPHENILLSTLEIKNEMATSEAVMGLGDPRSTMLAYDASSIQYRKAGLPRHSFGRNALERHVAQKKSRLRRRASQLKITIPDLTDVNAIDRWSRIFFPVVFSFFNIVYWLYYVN", "T2 sequence (P18507 40-467 isoform P18507-1 limits assumed, stated change not applied)": "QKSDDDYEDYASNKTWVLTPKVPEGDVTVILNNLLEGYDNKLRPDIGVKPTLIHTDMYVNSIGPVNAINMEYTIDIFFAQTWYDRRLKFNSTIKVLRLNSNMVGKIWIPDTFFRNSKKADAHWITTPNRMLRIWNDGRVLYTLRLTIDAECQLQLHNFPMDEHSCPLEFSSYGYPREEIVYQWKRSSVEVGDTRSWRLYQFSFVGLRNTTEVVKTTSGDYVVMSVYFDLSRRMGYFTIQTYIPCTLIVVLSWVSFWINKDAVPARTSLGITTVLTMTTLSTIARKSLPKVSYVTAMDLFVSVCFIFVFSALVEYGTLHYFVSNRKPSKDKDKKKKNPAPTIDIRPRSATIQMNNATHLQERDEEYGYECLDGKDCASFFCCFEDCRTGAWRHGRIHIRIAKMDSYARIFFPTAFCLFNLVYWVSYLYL", "assay": "GABA concentration-response assay, whole-cell patch clamp, HEK293T", "assay_type": "cell-based", "conditions": "GABA Hill fit", "text": "as §1, §2, §3, §4"}, "[4]": {"molecular_target": "T3, α4(P161T)β2γ2 GABAA receptor (Homo sapiens, UniProt P18507+P47870+P48169, P196T)", "T3 construct": "expressed in transfected cells; host or cells: HEK293T", "assay": "GABA concentration-response assay, whole-cell patch clamp, HEK293T", "assay_type": "cell-based", "conditions": "GABA Hill fit", "text": "as §1, §2, §3, §4"}, "[5]": {"molecular_target": "T4, α3(T187P)β2γ2 GABAA receptor (Homo sapiens, UniProt P18507+P34903+P47870, T215P)", "T4 construct": "expressed in transfected cells; host or cells: HEK293T", "assay": "GABA concentration-response assay, whole-cell patch clamp, HEK293T", "assay_type": "cell-based", "conditions": "GABA Hill fit", "text": "as §1, §2, §3, §4"}, "[6]": {"molecular_target": "T5, α4(I204S)β2γ2 GABAA receptor (Homo sapiens, UniProt P18507+P47870+P48169, I239S)", "T5 construct": "expressed in transfected cells; host or cells: HEK293T", "T5 sequence (P48169 36-554 I239S)": "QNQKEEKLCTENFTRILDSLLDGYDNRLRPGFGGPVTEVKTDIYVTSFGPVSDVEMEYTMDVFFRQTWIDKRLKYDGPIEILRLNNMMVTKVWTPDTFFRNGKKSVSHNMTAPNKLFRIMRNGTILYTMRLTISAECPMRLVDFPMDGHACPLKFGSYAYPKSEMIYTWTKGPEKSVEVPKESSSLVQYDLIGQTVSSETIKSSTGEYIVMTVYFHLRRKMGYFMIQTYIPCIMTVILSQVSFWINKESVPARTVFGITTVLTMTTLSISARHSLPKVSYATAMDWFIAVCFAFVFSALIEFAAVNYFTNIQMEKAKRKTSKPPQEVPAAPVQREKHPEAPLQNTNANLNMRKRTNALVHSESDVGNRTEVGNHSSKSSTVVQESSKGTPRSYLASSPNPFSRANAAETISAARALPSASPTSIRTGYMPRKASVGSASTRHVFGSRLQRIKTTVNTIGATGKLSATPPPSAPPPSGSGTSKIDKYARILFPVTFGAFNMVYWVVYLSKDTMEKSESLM", "T5 sequence (P47870 26-474 isoform P47870-1 limits assumed, stated change not applied)": "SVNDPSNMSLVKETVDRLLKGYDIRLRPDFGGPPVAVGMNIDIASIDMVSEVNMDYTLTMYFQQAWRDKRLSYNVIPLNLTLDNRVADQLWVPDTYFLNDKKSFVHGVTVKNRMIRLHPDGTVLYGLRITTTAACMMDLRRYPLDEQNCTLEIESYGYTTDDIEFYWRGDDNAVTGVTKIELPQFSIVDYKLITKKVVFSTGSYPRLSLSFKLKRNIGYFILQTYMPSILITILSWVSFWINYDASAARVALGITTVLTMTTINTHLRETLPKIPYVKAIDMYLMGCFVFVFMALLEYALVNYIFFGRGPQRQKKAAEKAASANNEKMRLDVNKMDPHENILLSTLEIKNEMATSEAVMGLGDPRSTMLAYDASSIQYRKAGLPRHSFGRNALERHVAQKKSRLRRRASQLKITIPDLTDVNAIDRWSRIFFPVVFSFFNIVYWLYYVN", "T5 sequence (P18507 40-467 isoform P18507-1 limits assumed, stated change not applied)": "as the sequence (P18507 40-467 isoform P18507-1 limits assumed, stated change not applied) above", "assay": "GABA concentration-response assay, whole-cell patch clamp, HEK293T", "assay_type": "cell-based", "conditions": "GABA Hill fit", "text": "as §1, §2, §3, §4"}, "[7]": {"molecular_target": "T6, α5(S209I)β2γ2 GABAA receptor (Homo sapiens, UniProt P18507+P31644+P47870, S240I)", "T6 construct": "expressed in transfected cells; host or cells: HEK293T", "T6 sequence (P31644 32-462 S240I)": "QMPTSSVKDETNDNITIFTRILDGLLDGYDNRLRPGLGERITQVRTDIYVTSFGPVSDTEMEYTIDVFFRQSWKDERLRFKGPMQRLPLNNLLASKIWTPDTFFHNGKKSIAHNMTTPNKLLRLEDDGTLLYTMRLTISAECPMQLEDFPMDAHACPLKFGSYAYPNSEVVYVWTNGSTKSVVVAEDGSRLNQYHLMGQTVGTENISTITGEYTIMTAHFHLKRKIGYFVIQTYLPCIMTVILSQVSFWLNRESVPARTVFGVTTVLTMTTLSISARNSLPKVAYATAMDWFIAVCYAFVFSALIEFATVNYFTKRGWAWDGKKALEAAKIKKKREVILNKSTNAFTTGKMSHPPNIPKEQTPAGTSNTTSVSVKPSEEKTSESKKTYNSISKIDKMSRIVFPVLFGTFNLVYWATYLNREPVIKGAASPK", "T6 sequence (P47870 26-474 isoform P47870-1 limits assumed, stated change not applied)": "as the sequence (P47870 26-474 isoform P47870-1 limits assumed, stated change not applied) above", "T6 sequence (P18507 40-467 isoform P18507-1 limits assumed, stated change not applied)": "as the sequence (P18507 40-467 isoform P18507-1 limits assumed, stated change not applied) above", "assay": "GABA concentration-response assay, whole-cell patch clamp, HEK293T", "assay_type": "cell-based", "conditions": "GABA Hill fit", "text": "as §1, §2, §3, §4"}, "[8]": {"molecular_target": "T7, α1(H102R)β2γ2 GABAA receptor (Homo sapiens, UniProt P14867+P18507+P47870, H129R)", "T7 construct": "expressed in transfected cells; host or cells: HEK293T", "assay": "GABA concentration-response assay, whole-cell patch clamp, HEK293T", "assay_type": "cell-based", "conditions": "GABA Hill fit", "text": "as §1, §2, §3, §4"}, "[9]": {"molecular_target": "T8, α6β2γ2 GABAA receptor (Homo sapiens, UniProt P18507+P47870+Q16445)", "T8 construct": "expressed in transfected cells; host or cells: HEK293T", "assay": "GABA concentration-response assay, whole-cell patch clamp, HEK293T", "assay_type": "cell-based", "conditions": "GABA Hill fit", "text": "as §1, §2, §3, §4"}, "[10]": {"molecular_target": "T9, α6(N204I)β2γ2 GABAA receptor (Homo sapiens, UniProt P18507+P47870+Q16445, N223I)", "T9 construct": "expressed in transfected cells; host or cells: HEK293T", "assay": "GABA concentration-response assay, whole-cell patch clamp, HEK293T", "assay_type": "cell-based", "conditions": "GABA Hill fit", "text": "as §1, §2, §3, §4"}, "[11]": {"molecular_target": "T10, α1(T163P)β2γ2 GABAA receptor (Homo sapiens, UniProt P14867+P18507+P47870, T190P)", "T10 construct": "expressed in transfected cells; host or cells: HEK293T", "assay": "GABA concentration-response assay, whole-cell patch clamp, HEK293T", "assay_type": "cell-based", "conditions": "GABA Hill fit", "text": "as §1, §2, §3, §4"}, "[12]": {"molecular_target": "T11, α1β2γ2 GABAA receptor (Homo sapiens, UniProt P14867+P18507+P47870)", "T11 construct": "expressed in transfected cells; host or cells: HEK293T", "assay": "GABA concentration-response assay, whole-cell patch clamp, HEK293T", "assay_type": "cell-based", "conditions": "GABA Hill fit", "text": "as §1, §2, §3, §4"}, "[13]": {"molecular_target": "T12, α5β2γ2 GABAA receptor (Homo sapiens, UniProt P18507+P31644+P47870)", "T12 construct": "expressed in transfected cells; host or cells: HEK293T", "assay": "GABA concentration-response assay, whole-cell patch clamp, HEK293T", "assay_type": "cell-based", "conditions": "GABA Hill fit", "text": "as §1, §2, §3, §4"}}, "note": "“And” between values parts separate entries of the source, which are not always exact repeats. Identical values can stand only once. Like-named read-outs stand apart in the source and are kept apart here.", "data": [{"smiles": "Cc1ncc2n1-c1ccc(Cl)cc1C(c1ccccc1F)=NC2", "note": "[midazolam]", "values": [{"measurement": "therapeutically relevant range of midazolam measured from plasma", "setting": "[1]; anesthetized state", "result": "350 ng/mL and 966 nM"}, {"measurement": "therapeutically relevant range of midazolam measured from plasma", "setting": "[1]; postoperative drowsiness", "result": "75 ng/mL and 207 nM"}]}, {"smiles": "NCCCC(=O)O", "note": "[GABA, γ‐aminobutyric acid]", "values": [{"measurement": "Hill coefficient", "setting": "[2]", "result": "1.519 ± 0.88"}, {"measurement": "Max Current (pA)", "setting": "[2]", "result": "-3597 ± 343.6", "unit": "pA"}, {"measurement": "Hill coefficient", "setting": "[3]", "result": "1.444 ± 0.104"}, {"measurement": "Max Current (pA)", "setting": "[3]", "result": "-5007 ± 470.7", "unit": "pA"}, {"measurement": "Max Current (pA)", "setting": "[4]", "result": "-4487 ± 397.2", "unit": "pA"}, {"measurement": "Max Current (pA)", "setting": "[5]", "result": "-1993 ± 189.7", "unit": "pA"}, {"measurement": "Hill coefficient", "setting": "[6]", "result": "1.180 ± 0.072"}, {"measurement": "Max Current (pA)", "setting": "[6]", "result": "-3424 ± 394.5", "unit": "pA"}, {"measurement": "Hill coefficient", "setting": "[7]", "result": "1.434 ± 0.059"}, {"measurement": "Max Current (pA)", "setting": "[7]", "result": "-6073 ± 742.0", "unit": "pA"}, {"measurement": "Hill coefficient", "setting": "[8]", "result": "1.255 ± 0.097"}, {"measurement": "Max Current (pA)", "setting": "[8]", "result": "-3175 ± 444.3", "unit": "pA"}, {"measurement": "Hill coefficient", "setting": "[9]", "result": "1.405 ± 0.074"}, {"measurement": "Max Current (pA)", "setting": "[9]", "result": "-3276 ± 578.1", "unit": "pA"}, {"measurement": "Max Current (pA)", "setting": "[10]", "result": "-3549 ± 408.6", "unit": "pA"}, {"measurement": "Hill coefficient", "setting": "[11]", "result": "1.230 ± 0.049"}, {"measurement": "Max Current (pA)", "setting": "[11]", "result": "-2449 ± 376.1", "unit": "pA"}, {"measurement": "Hill coefficient", "setting": "[12]", "result": "1.400 ± 0.102"}, {"measurement": "Max Current (pA)", "setting": "[12]", "result": "-4218 ± 601.6", "unit": "pA"}, {"measurement": "Hill coefficient", "setting": "[13]", "result": "1.547 ± 0.123"}, {"measurement": "Max Current (pA)", "setting": "[13]", "result": "-5115 ± 315.9", "unit": "pA"}]}]}
